Assay: in vitro
Details: human, hela cells, % viability

| Structure (SMILES) | viability at 28.5 h, 10 µM [%] |
| --- | --- |
| Cc1ccc(S(=O)(=O)Nc2nc3ccc(S(=O)(=O)N4CCOCC4)cc3s2)cc1 [CBK266988] | 88.8 |
| CCc1cc(C(=O)OC)c(NC(=O)CC2NCCNC2=O)s1 (stereo not drawn) [CBK266990] | 97.6 |
| O=[N+]([O-])c1ccc(S(=O)(=O)CC(CN2CCCC2)N2CCCC2)cc1 (stereo not drawn) [CBK266991] | 112 |
| Cc1nc(SCc2cccc(C(=O)O)c2)nc2c1CCCC2 [CBK266997] | 87.3 |
| Cc1cc(C(=O)O)ccc1-c1ccc(/C=C/c2[nH]c(=O)[nH]c(=O)c2[N+](=O)[O-])o1 [CBK266998] | 97.3 |
| COc1ccc(CCNC(=S)n2cc(C)cn2)cc1OC [CBK267001] | 89 |
| Cc1ccc(NC(=O)Cn2cnc3c(=O)n(C)c(=O)n(C)c32)c(O)c1 [CBK267002] | 102 |
| CCOC(=O)COc1c(Cl)cc(/C=C/c2[nH]c(=O)[nH]c(=O)c2[N+](=O)[O-])cc1Cl [CBK267003] | 91.2 |
| O=C(Nc1cc(Cl)ccc1Cl)C1CN(S(=O)(=O)c2ccccc2)CCN1S(=O)(=O)c1ccccc1 (stereo not drawn) [CBK267004] | 88.7 |
| COc1ccc(C)cc1N(CC(=O)Nc1ccc(F)c(F)c1)S(C)(=O)=O [CBK267006] | 96.5 |
| CC(=O)Nc1ccc(S(=O)(=O)N2CCN(c3cc4[nH]c(=O)[nH]c4cc3[N+](=O)[O-])CC2)cc1 [CBK267013] | 97.7 |
| O=C(NCc1ccccn1)Nc1ccc2c(c1)OCO2 [CBK267014] | 97.1 |
| CN(CC(=O)N1CCN(Cc2ccc3c(c2)OCO3)CC1)S(=O)(=O)c1ccc2ccccc2c1 [CBK267016] | 108 |
| O=S(=O)(c1ccc2ccccc2c1)N1CCN(CCCOc2ccccc2Cl)CC1 [CBK267018] | 106 |
| Cc1cccc(C)c1NC(=O)CC(C(=O)O)N(C)C (stereo not drawn) [CBK267022] | 90.9 |
| COc1ccc(C)cc1NC(=S)NCc1cnn(C)c1 [CBK267025] | 106 |
| CCOc1ccccc1NC(=O)NCc1cccnc1 [CBK267026] | 107 |

| Structure (SMILES) | viability at 28.5 h, 10 µM [%] |
| --- | --- |
| Nc1ncn(Cc2ccccc2)c2nc(SCC(=O)O)nc1-2 [CBK267027] | 99.2 |
| COC(=O)c1c(NC(=S)NCc2cccnc2)sc(C)c1C [CBK267029] | 89.2 |
| Cc1cc(=O)oc2cc(NC(=S)NNC(=O)C(C)Oc3ccc4c(c3)CCC4)ccc12 (stereo not drawn) [CBK267031] | 91.4 |
| CCn1cc(NC(=S)Nc2sc3c(c2C(=O)OC)CCC(C)C3)c(C(N)=O)n1 (stereo not drawn) [CBK267032] | 105 |
| O=C(O)Cn1nnc(-c2ccc(OCc3cccc(C(F)(F)F)c3)cc2)n1 [CBK267034] | 97.7 |
| Cn1c(SCC(=O)Nc2ccc(F)cc2)nnc1-c1cccnc1 [CBK267035] | 94.7 |
| O=C(O)c1ccc(CNC(=S)Nc2ccc([N+](=O)[O-])cc2)cc1 [CBK267037] | 92.9 |
| CCn1cc(CN(C)C(=S)Nc2cccc(C(C)=O)c2)c(C)n1 [CBK267040] | 106 |
| COc1cc([N+](=O)[O-])ccc1NC(=S)Nc1cccc(S(=O)(=O)N2CCOCC2)c1 [CBK267042] | 96.9 |
| CC(=O)c1c(C)oc2ccc(N(C(=O)c3cccc([N+](=O)[O-])c3)S(=O)(=O)c3cccc4cccnc34)cc12 [CBK267044] | 70.2 |
| O=S(=O)(Nc1ncccn1)c1ccc(NC(=S)Nc2ccc3c(c2)OCO3)cc1 [CBK267046] | 89 |
| COC(=O)c1cc(C)sc1NC(=S)Nc1ccccc1[N+](=O)[O-] [CBK267047] | 99.9 |
| S=C(NCCc1ccccc1)Nc1ccc2c(c1)OCCO2 [CBK267048] | 110 |
| Cc1cccnc1NC(=S)Nc1ccc(S(N)(=O)=O)cc1 [CBK267049] | 111 |
| CC(C)N(Cc1nc(-c2ccc(Cl)cc2)no1)S(=O)(=O)c1cccc([N+](=O)[O-])c1 [CBK267050] | 83.6 |
| COC(=O)c1c(NC(=S)NNC(=O)c2nn(C)c(C)c2Br)sc2c1CCC(C)C2 (stereo not drawn) [CBK267052] | 93.9 |

From article PMC12040169 (PLOS Biology, 2025)
